Data published in US7626044B2, “Triptolide derivatives and their uses” (priority 2002, dated 2009).

Legend:
[1] = test system: DNFB-induced mouse DTH response; assay: DNFB-induced mouse delayed type hypersensitivity response (DTH); assay type: in vivo
Protocol: Female Balb/c mice (age of 6-8 wk) were randomly divided into groups and immunized with 20 μl 0.5% DNFB solution in absolute acetone-olive oil (4:1) on each hind foot on day 0 and 1;
7-9 days after the initial immunization, mice were boosted with 10 μl 0.4% DNFB on both sides of the left ear, whereas the right ear was treated with vehicle alone;
Compounds were administered intraperitoneally (i.p.) or orally (p.o.) to the mice 1 h before DNFB booster immunization and 12 h later.
Ear swelling and other indexes were assessed 24-48 h after booster immunization.
Note: Female ICR mice (age of 6-8 wk) were immunized with 0.7% DNFB solution and boosted with 0.6% DNFB solution.

[2] = test system: BEL-7402 (human hepatic carcinoma cell); assay: Tumor cell proliferation, BEL-7402; assay type: cell-based; conditions: read-out: Inhibitory effect on tumor cell proliferation IC50
B lymphocyte = assay: LPS induced B-lymphocyte proliferation ([3H]thymidine); assay type: cell-based, mouse
Protocol: Mice were sacrificed by cervical dislocation, and spleens were collected under sterile conditions then teased through a nylon mesh. Erythrocytes were lysed. Cells were washed and resuspended at 5×10^6/ml in RPMI-1640 media containing 10% FBS. For one 96 well plate assay, 100 pt of cells, 50 μl of sample and 50 μl of ConA/LPS were added into each well with the final volume 200 μl. The control wells were set up with 50 μl of RPMI-1640 media instead of ConA/LPS.
Plates were incubated for 48 h (ConA) or 60 h (LPS), respectively, at 37° C., 5% CO2 in a humidified incubator. In the last 8 h of incubation, 25 μl (1.9×10^10 Bq) of [^3H]thymidine was added. After plates were incubated for 48 h, the plates (ConA) were stored at −20° C., then after another 12 h, the plates (LPS) were stored at −20° C.
At the end of incubation, pulsed cells were harvested on a glass filter using a cell harvester ([…]96®, TOMTEC) and allowed to dry. Incorporation of radioactive thymidine was determined by using liquid Scintillation and Luminescence Counters (MicroBeta Trilux®, PerkinElmer).

[3] = test system: HO-8910 (human ovary cancer cells); assay: Tumor cell proliferation, HO-8910; assay type: cell-based; conditions: read-out: Inhibitory effect on tumor cell proliferation IC50
rat adjuvant arthritis = assay: Rat adjuvant arthritis (AA), therapeutic effect; assay type: in vivo; conditions: i.p. for 14 days from day 19; especially at 2 mg/Kg/d
Protocol: Rats were immunized on day 0 by intradermal injection of Complete Freund's adjuvant (CFA), containing 10 mg heat-inactivated BCG in 1 ml paraffin oil, into the left hind paw in 0.1 ml for each rat. Inflammatory polyarthritis was induced in all immunized rats. Swelling in left paw and polyarthritic symptoms were seen from day 1, lasted for 4 days, and then diminished. Swelling in the same paw occurred again from day 8, reached the peak at day 16. The secondary symptoms, including the right hind paw swelling and polyarthritis, were seen from day 12. The polyarthritis severity was graded on a scale of 0-4: 0=no swelling; 1=isolated phalanx joint involvement; 2=involvement of phalanx joint and digits; 3=involvement of the entire region down to the ankle; 4=involvement of entire paw, including ankle.
Right hind paw volume was determined before immunization (basic value, day 0) and repeated every 3 days. Animals were sacrificed on day 15, and thymus and spleen were harvested for thymus and spleen index assessment. Result: The secondary symptoms were established when the right hind paw severely swelled 19 days after adjuvant injection. […] Comparing with AA model rat, LLDT-8 treatment, especially at dose of 2 mg/Kg/d, markedly withdrew the symptoms (FIG. 16 and FIG. 17).

[4] = test system: A-549 (human lung carcinoma); assay: Tumor cell proliferation, A-549; assay type: cell-based; conditions: read-out: Inhibitory effect on tumor cell proliferation IC50
[5] = Table 5, i.p., dosage 1 mg/kg/d for 5 days, control 20

CC(C)[C@]12O[C@H]1[C@@H]1O[C@]13[C@]1(O[C@H]1C[C@@]1(O)C4=C(CC[C@]31C)C(=O)OC4)[C@@H]2O [LLDT-8, (5R)-5-hydroxytriptolide]
Body weight after i.p. [1, 5]: 21/21 g
Body weight before i.p. [1, 5]: 21/21 g
Right ear ([1]; Table 5, i.p., dosage 1 mg/kg/d for 5 days, control 31.2): 35.5 mg
Ear swelling ([1]; Table 5, i.p., dosage 1 mg/kg/d for 5 days, control 32.6): 21.4 mg
Left ear ([1]; Table 5, i.p., dosage 1 mg/kg/d for 5 days, control 63.8): 56.9 mg
Spleen ([1]; Table 5, i.p., dosage 1 mg/kg/d for 5 days, control 142.4): 140.3 mg
Right ear ([1]; Table 6, i.p. once a day for 2 days, ICR mice, dosage 0.04 mg/kg, control 30.0): 29.4 mg
Ear swelling ([1]; Table 6, i.p. once a day for 2 days, ICR mice, dosage 0.04 mg/kg, control 31.1): 26.1 mg
Left ear ([1]; Table 6, i.p. once a day for 2 days, ICR mice, dosage 0.04 mg/kg, control 61.1): 55.5 mg
Right ear ([1]; Table 6, i.p. once a day for 2 days, ICR mice, dosage 0.2 mg/kg, control 30.0): 37.4 mg
Ear swelling ([1]; Table 6, i.p. once a day for 2 days, ICR mice, dosage 0.2 mg/kg, control 31.1): 17.9 mg
Left ear ([1]; Table 6, i.p. once a day for 2 days, ICR mice, dosage 0.2 mg/kg, control 61.1): 55.3 mg
Right ear ([1]; Table 6, i.p. once a day for 2 days, ICR mice, dosage 1 mg/kg, control 30.0): 33.0 mg
Ear swelling ([1]; Table 6, i.p. once a day for 2 days, ICR mice, dosage 1 mg/kg, control 31.1): 23.4 mg
Left ear ([1]; Table 6, i.p. once a day for 2 days, ICR mice, dosage 1 mg/kg, control 61.1): 56.4 mg
Ear swelling X ± SD ([1]; Table 7, i.p. at low dosages, Balb/c mice, dosage 2 (mg/kg), control 23.3 ± 4.3): 16.8 ± 5.4 mg
Right ear ([1]; Table 7, i.p. at low dosages, Balb/c mice, dosage 2 (mg/kg), control 26.3): 27.5 mg
Left ear ([1]; Table 7, i.p. at low dosages, Balb/c mice, dosage 2 (mg/kg), control 49.6): 44.3 mg
Ear swelling X ± SD ([1]; Table 7, i.p. at low dosages, Balb/c mice, dosage 8 (mg/kg), control 23.3 ± 4.3): 16.6 ± 4.1 mg
Right ear ([1]; Table 7, i.p. at low dosages, Balb/c mice, dosage 8 (mg/kg), control 26.3): 29.7 mg
Left ear ([1]; Table 7, i.p. at low dosages, Balb/c mice, dosage 8 (mg/kg), control 49.6): 46.3 mg
Ear swelling X ± SD ([1]; Table 7, i.p. at low dosages, Balb/c mice, dosage 40 (mg/kg), control 23.3 ± 4.3): 16.9 ± 2.7 mg
Right ear ([1]; Table 7, i.p. at low dosages, Balb/c mice, dosage 40 (mg/kg), control 26.3): 25.7 mg
Left ear ([1]; Table 7, i.p. at low dosages, Balb/c mice, dosage 40 (mg/kg), control 49.6): 42.6 mg
Ear swelling X ± SD ([1]; Table 7, i.p. at low dosages, Balb/c mice, dosage 200 (mg/kg), control 23.3 ± 4.3): 17.1 ± 5.1 mg
Right ear ([1]; Table 7, i.p. at low dosages, Balb/c mice, dosage 200 (mg/kg), control 26.3): 27.2 mg
Left ear ([1]; Table 7, i.p. at low dosages, Balb/c mice, dosage 200 (mg/kg), control 49.6): 44.3 mg
Body weight after i.p. ([1]; Table 8, i.p., Balb/c mice, dosage 0.4 (mg/kg), control 21.9): 22.6 g
Body weight before i.p. ([1]; Table 8, i.p., Balb/c mice, dosage 0.4 (mg/kg), control 22.4): 22.3 g
Ear swelling X ± SD ([1]; Table 8, i.p., Balb/c mice, dosage 0.4 (mg/kg), control 22.7 ± 2.1): 17.7 ± 4.7 mg
Right ear ([1]; Table 8, i.p., Balb/c mice, dosage 0.4 (mg/kg), control 26.4): 29.2 mg
Left ear ([1]; Table 8, i.p., Balb/c mice, dosage 0.4 (mg/kg), control 49.1): 47.0 mg
Spleen ([1]; Table 8, i.p., Balb/c mice, dosage 0.4 (mg/kg), control 154.0): 164.2 mg
Body weight after i.p. ([1]; Table 8, i.p., Balb/c mice, dosage 4 (mg/kg), control 21.9): 21.8 g
Body weight before i.p. ([1]; Table 8, i.p., Balb/c mice, dosage 4 (mg/kg), control 22.4): 21.4 g
Ear swelling X ± SD ([1]; Table 8, i.p., Balb/c mice, dosage 4 (mg/kg), control 22.7 ± 2.1): 15.3 ± 4.7 mg
Right ear ([1]; Table 8, i.p., Balb/c mice, dosage 4 (mg/kg), control 26.4): 26.8 mg
Left ear ([1]; Table 8, i.p., Balb/c mice, dosage 4 (mg/kg), control 49.1): 42.1 mg
Spleen ([1]; Table 8, i.p., Balb/c mice, dosage 4 (mg/kg), control 154.0): 163.3 mg
Body weight after i.p. ([1]; Table 8, i.p., Balb/c mice, dosage 40 (mg/kg), control 21.9): 21.4 g
Body weight before i.p. ([1]; Table 8, i.p., Balb/c mice, dosage 40 (mg/kg), control 22.4): 21.6 g
Ear swelling X ± SD ([1]; Table 8, i.p., Balb/c mice, dosage 40 (mg/kg), control 22.7 ± 2.1): 17.1 ± 4.9 mg
Right ear ([1]; Table 8, i.p., Balb/c mice, dosage 40 (mg/kg), control 26.4): 29.6 mg
Left ear ([1]; Table 8, i.p., Balb/c mice, dosage 40 (mg/kg), control 49.1): 46.7 mg
Spleen ([1]; Table 8, i.p., Balb/c mice, dosage 40 (mg/kg), control 154.0): 168.5 mg
Body weight after (i.p.) ([1]; Table 9, p.o., Balb/c mice, dosage 1 mg/kg/d for 2 days, control 19): 21/21 g
Body weight before (i.p.) ([1]; Table 9, p.o., Balb/c mice, dosage 1 mg/kg/d for 2 days, control 20): 21/21 g
Ear swelling ([1]; Table 9, p.o., Balb/c mice, dosage 1 mg/kg/d for 2 days, control 23.4): 13.1 mg
Right ear ([1]; Table 9, p.o., Balb/c mice, dosage 1 mg/kg/d for 2 days, control 25.9): 27.3 mg
Left ear ([1]; Table 9, p.o., Balb/c mice, dosage 1 mg/kg/d for 2 days, control 49.3): 40.4 mg
Spleen ([1]; Table 9, p.o., Balb/c mice, dosage 1 mg/kg/d for 2 days, control 125.8): 124.4 mg
Right ear ([1]; Table 10, p.o., ICR mice, dosage 0.04 mg/kg, control 33.7): 35.2 mg
Ear swelling ([1]; Table 10, p.o., ICR mice, dosage 0.04 mg/kg, control 41.5): 33.8 mg
Left ear ([1]; Table 10, p.o., ICR mice, dosage 0.04 mg/kg, control 75.2): 69.0 mg
Right ear ([1]; Table 10, p.o., ICR mice, dosage 0.2 mg/kg, control 33.7): 38.2 mg
Ear swelling ([1]; Table 10, p.o., ICR mice, dosage 0.2 mg/kg, control 41.5): 30.0 mg
Left ear ([1]; Table 10, p.o., ICR mice, dosage 0.2 mg/kg, control 75.2): 68.2 mg
Right ear ([1]; Table 10, p.o., ICR mice, dosage 1 mg/kg, control 33.7): 39.4 mg
Ear swelling ([1]; Table 10, p.o., ICR mice, dosage 1 mg/kg, control 41.5): 24.1 mg
Left ear ([1]; Table 10, p.o., ICR mice, dosage 1 mg/kg, control 75.2): 63.5 mg
IC50 [2]: 85 nM
ED50 for inhibiting B lymphocyte proliferation induced by LPS (B lymphocyte; 60 h): 0.0598 µg/mL
EC50 (B lymphocyte; 60 h, read-out: ED50 for inhibiting B lymphocyte proliferation induced by LPS): 159 nM
more potent inhibitory activity than CsA (B lymphocyte proliferation) (B lymphocyte; compared with CsA): about 4.3 fold
IC50 [3]: 220 nM
polyarthritic symptoms (therapeutic) (rat adjuvant arthritis): effectively cured the polyarthritic symptoms
IC50 [4]: 32 nM
